{"source": "patent US12370149B1", "about": "“Transdermal cannabidiol delivery device” (ZHI Technologies, Inc., priority 2024, dated 2025)", "assay": "Solubility of CBD in mineral oil", "format": "physicochemical", "source_text": "Cannabidiol content. As discussed above, the matrices and TTDs of the present disclosure are advantageously formulated with a “saturated-plus-excess” concentration of CBD. The solubility of CBD in mineral oil (and by extension a PIB/mineral oil blend since PIB and mineral oil have the same solubility) is 4% (w/w). The amount of CBD in the matrix should be at least twofold, e.g., at least threefold, at least fourfold, or at least fivefold more CBD than the maximum concentration of CBD that dissolves in the plasticizer (e.g., mineral oil). The amount of CBD in the matrix can be any amount from about 10% (w/w) to about 30% (w/w) of the matrix, for example about 12.0% (w/w), about 12.5% (w/w), about 13.0% (w/w), about 13.5% (w/w), about 14.0% (w/w), about 14.5% (w/w), about 15.0% (w/w), about 15.5% (w/w), about 16.0% (w/w), about 16.5% (w/w), about 17.0% (w/w), about 17.5% (w/w), about 18.0% (w/w), about 18.5% (w/w), about 19.0% (w/w), about 19.5% (w/w), about 20.0% (w/w), or about 20.5% (w/w) of the matrix. The amount of cannabinoids other than CBD should be less than about 10% (w/w), for example less than about 1% (w/w)."}
{"molecule": "C=C(C)[C@@H]1CCC(C)=C[C@H]1c1c(O)cc(CCCCC)cc1O", "note": "[CBD, cannabidiol]", "values": [{"measurement": "solubility of CBD in mineral oil (and by extension a PIB/mineral oil blend)", "result": "4 % (w/w)"}]}
